Assay results from patent US20240366624A1, “METHODS AND COMPOSITIONS FOR TREATING THROMBOTIC DISEASE” (Washington University, priority 2023, published 2024).
“Also recorded” adds a separate entry of the source.

What was measured:
Ero1α-null platelets = assay: Platelet aggregation, Ero1α-null platelets; assay type: cell-based, mouse
Experimental: FIG. 7(A-L) is an exemplary embodiment of crucial intracellular ERO1α (endoplasmic reticulum oxidoreductase 1a) for platelet activation, aggregation, and thrombus formation in accordance with the present disclosure. FIG. 7A: Ex vivo platelet thrombus formation in a flow chamber assay. Adherent and aggregated platelets were stained with rhodamine-conjugated phalloidin and imaged by confocal microscopy. Representative images (bar, 10 μm). Surface coverage and thrombus volume were measured (mean±SD, n=4). FIG. 7(B-E): Aggregation and ATP secretion of wild type (WT) and Ero1α-null platelets were induced by 0.025 U/mL thrombin, 0.05 μg/mL CRP (collagen-related peptide), 0.5 μM A23187, or 2.5 μM ADP. Platelet aggregation (i) and ATP secretion (ii). FIG. 7F: Ero1α-null platelets were pretreated with 50 μg/mL wtERO1α or wtPDI and then with 0.025 U/mL thrombin. Quantification graphs of aggregation and ATP secretion are presented as the mean±SD (n=3-4). FIG. 7G and FIG. 7H: P-selectin exposure and αIIbβ3 integrin activation of WT and Ero1α-null platelets were analyzed by flow cytometry. The data are presented as the geometric mean fluorescence intensity (MFI) value (mean±SD, n=3-4). FIG. 7I: WT and Ero1α-null platelets were treated with or without 0.025 U/mL thrombin for 1 minute in an aggregometer. The lysates were immunoprecipitated with control IgG or anti-β3 antibodies and subjected to immunoblotting with antibodies against talin1 or β3 and densitometric analysis (mean±SD, n=3). FIG. 7J: WT and Ero1α-null platelets were treated with or without 0.025 U/mL thrombin, followed by transmission electron microscopy. The original magnification was 34 800, and the extension was 313 000. Bar, 500 nm. FIG. 7K and FIG. 7L: Intravital microscopy was performed to determine the effect of 15E9 (1-3 μg/g body weight [BW]) and a blocking anti-PDI (protein disulfide isomerase) antibody (BD34, 3 μg/g BW) on platelet thrombus formation and fibrin generation at the site of laser-induced cremaster arteriolar injury (n=27-40 arterioles in 6 mice per group). The n indicates biological replicates. P values determined by unpaired Student t test (FIG. 7(A-E) and FIG. 7(G-1)), ANOVA and Dunnett test (FIG. 7F), or Mann-Whitney U test (FIG. 7K and FIG. 7L).
FIG. 9(A-C) is an exemplary embodiment of EN460 inhibiting thrombin-induced aggregation of mouse and human platelets in accordance with the present disclosure. […] P values determined by ANOVA and Dunnett's test (FIG. 9(A-B)) or Student's t-test (FIG. 9C).
FIG. 10(A-E) is an exemplary embodiment of 15E9 not affecting platelet activation and aggregation in accordance with the present disclosure. […] P values determined by unpaired Student's t-test (vs. mIgG1). […]

WT mouse platelets = assay: Platelet aggregation, WT mouse platelets; assay type: cell-based
Experimental: FIG. 9(A-C) is an exemplary embodiment of EN460 inhibiting thrombin-induced aggregation of mouse and human platelets in accordance with the present disclosure. (A) Human (FIG. 9A), WT (FIG. 9B), and Ero1α-null (FIG. 9C) platelets were pretreated with EN460, an ERO1α inhibitor, at 1, 3, or 10 μM, and treated with 0.025 U/ml thrombin to induce platelet aggregation. The data represent the mean±SD (n=3). P values determined by ANOVA and Dunnett's test (FIG. 9(A-B)) or Student's t-test (FIG. 9C).
FIG. 10(A-E) is an exemplary embodiment of 15E9 not affecting platelet activation and aggregation in accordance with the present disclosure. […] P values determined by unpaired Student's t-test (vs. mIgG1).
FIG. 18(A-R) is an exemplary embodiment of novel small-molecule inhibitors recapitulating the defect in Ero1α (endoplasmic reticulum oxidoreductase 1a)-null platelets in accordance with the present disclosure. […] After incubation with a different concentration of B12-5, the specific interaction between B12-5 and ERO1α was measured by subtracting the nonspecific binding. The KD value was calculated from the Kon and Koff values. […] P values determined by ANOVA and Dunnett test (FIG. 18(B-E), FIG. 18(1-L), and FIG. 18(O-R) [for B12-5]) or Student t test (FIG. 18M, FIG. 18N, and FIG. 18(O-R) [for BAPTA (1,2-bis(o-aminophenoxy)ethane-N,N,N′,N′-tetraacetic acid)]).

## O=C(O)c1cc(N2N=C(C(F)(F)F)/C(=C/c3ccc(-c4ccccc4)o3)C2=O)ccc1Cl [EN460]
Ero1α-null platelets; 3 μM
  Ero1α-null platelet aggregation: abolished; also recorded: completely blocked
Ero1α-null platelets; 3 to 10 μM
  Ero1α-null platelet aggregation: significantly inhibited
WT mouse platelets; 3 to 10 μM, mouse platelets
  thrombin-induced aggregation: abrogated

## O=C(CSc1nc(O)cc(O)n1)N1c2ccccc2Sc2ccccc21 [B12-5]
Ero1α-null platelets; 10 μM / up to 10 μM
  Ero1α-null platelet aggregation: without affecting; also recorded: did not show an additional effect
WT mouse platelets; 10 μM
  thrombin- or CRP-induced WT platelet aggregation: significantly mitigated
